Legend:
[1] = test system: mice; assay: Permanent focal cerebral ischemia in mice; assay type: in vivo; conditions: for Neuroprotective effect (necrotic brain surface area): 30 min after surgery, male NMRI mice, *p < 0.05; for dose that statistically significantly decreased the necrotic surface area: permanent focal ischemia, mice
Description: Permanent Focal Cerebral Ischemia in Mice
In these experiments a modified method of Karkoutly et al. (1990) was used. Male NMRI mice weighing 30-35 g were anaesthetized with 2,2,2-tribromoethanol at 500 mg/kg (20 ml/kg) administered i.p. The surgical procedure was performed according to Welsh et al. (1987). After drilling a hole into the skull the distal branch of the middle cerebral artery was electrocoagulated. Test compounds were administered i.p. 30 min after surgery. Two days later the animals were deeply anaesthetized with sodium pentobarbital (120 mg/kg i.p.). The brain was perfused through the left ventricle of the heart with a 4% solution of 2,3,5-triphenyltetrazolium chloride (TTC). One hour later the animals were decapitated, the brains were removed and placed into ice-cold saline for a few min. Then the brains were fixed in 8% formalin solution for 24 hours. The necrotic (non-stained with TTC) brain surface area was measured by means of an image analyser computer system (DigiCell for Windows 4.0). Statistical significance was assessed using ANOVA followed by Duncan's test.

[2] = Study of toxic effects in rats (body weight gain); assay type: in vivo; conditions: female Wistar rats, 15 mg/kg/day orally for 7 days; mean ± standard error of the mean; control 17.4 ± 1.4
Description: Study of Toxic Effects in Rats
The study was performed in female Wistar rats. On the day preceding the first treatment all animals were weighed and randomly allocated into treatment groups (10 animals/group). The test compounds were suspended in 0.4% hydroxymethyl cellulose solution (Methocell F4 M, Daw Chemical Company, USA) and were administered orally once a day for 7 days. The dose of non-chiral compounds according to the examples 8 and 9 was 15 mg/kg/day.
Animals of the control group were treated with the vehicle. The weight of the animals was registered every day. Weight gain was the difference between body weights on the first day and last day of the experiment. Toxicity of the test compounds was shown as a decrease in body weight or negative weight gain.
BWG=body weight gain: the difference between body weights on the first and last days of the experiment given as mean ± standard error of the mean.

[3] = test system: mice; assay: Maximal electroshock (MES) test in mice; assay type: in vivo; conditions: male NMRI mice, electroshock 30 min after ip. treatment
Description: Maximal Electroshock (MES) Test in Mice
The experiments were performed according to Swinyard et al. (1952). Male NMRI mice weighing 20 to 25 g were treated intraperitoneally with the test compounds administered in a volume of 10 ml/kg. […] The number of animals showing positive reaction was counted in each group. The dose of test substance causing 50% (ED50) inhibition was calculated according to the method of Litchfield and Wilcoxon (1949).
MES=maximal electroshock (in mice): electroshock of sufficient current intensity applied through corneal electrodes to mice causes tonic extensor convulsion of the hind legs.

Row | Structure (SMILES) | melting point [°C] | Neuroprotective effect (necrotic brain surface area) ([1]; dose 1.0 mg/kg ip.) | Neuroprotective effect (necrotic brain surface area) ([1]; dose 3.0 mg/kg ip.) | Neuroprotective effect (necrotic brain surface area) ([1]; dose 10.0 mg/kg ip.) | dose that statistically significantly decreased the necrotic surface area [1] [mg/kg i.p.] | BWG (body weight gain) [2] [g] | MES, ED50 [3] [mg/kg ip.] | Neuroprotective effect (necrotic brain surface area) ([1]; dose 0.1 mg/kg ip.) | Neuroprotective effect (necrotic brain surface area) ([1]; dose 0.3 mg/kg ip.)
1 | CC(=O)N1N=C(c2ccc(N)c(C)c2)c2cc(Cl)ccc2C=C1C | 209 to 211 | – | – | – | – | – | – | – | –
2 | CCC(=O)N1N=C(c2ccc(N)c(C)c2)c2cc(Cl)ccc2C=C1C | 218 to 221 | – | – | – | – | – | – | – | –
3 | CC(=O)N1N=C(c2ccc(N)cc2)c2cc3c(cc2C=C1C)OCO3 [7-acetyl-5-(4-aminophenyl)-8-methyl-7H-1,3-dioxolo-[4,5-h][2,3]-benzodiazepine, reference compound] | – | −1 | −14 | −21* | 10 | – | – | – | –
4 | CNC(=O)N1N=C(c2ccc(N)c(C)c2)c2cc(Cl)ccc2C=C1C [Example 8, 1-(4-Amino-3-methylphenyl)-8-chloro-4-methyl-3H-2,3-benzodiazepine-3-carboxylic acid methyl amide] | 210 to 212 | −17* | −15* | −22* | 0.3 | 9.9 ± 3.1 | 4.1 | −5 | −17*
5 | CC1=Cc2ccc(Cl)cc2C(c2ccc(N)c(C)c2)=NN1C(=O)NC1CC1 [Example 9, 1-(4-Amino-3-methylphenyl)-8-chloro-4-methyl-3H-2,3-benzodiazepine-3-carboxylic acid cyclopropyl amide] | 233 to 236 | – | – | – | – | 17.7 ± 1.3 | 2.2 | – | –

From US7960375B2, “8-chloro-2,3-benzodiazepine derivatives” (priority 2003, dated 2011)
